Test results reported in ChEMBL document CHEMBL1201862, “PubChem BioAssay data set” (2004).
The source made the active and inactive calls.

Experiments:
[1] = Luminescence Cell-Based Dose Response HTS to Identify Inhibitors of 5'UTR Stem-Loop Driven Prion Protein mRNA Translation in H4 Neuroglioblastoma Cells. [Related pubchem assays: 1827 (Project Summary), 1813 (Primary HTS)]; assay type: functional
[2] = inhibitors of SNCA 5'UTR-driven reporter translation, confirmation, H4 neuroglioma cells, luminescence (AID 1988); assay type: functional, cell-based
[3] = inhibitors of firefly luciferase expression or activity, dose response, H4 neuroglioma cells, luminescence (AID 1990); assay type: functional, cell-based
[4] = biological target: Large T antigen (Simian virus 40, UniProt P03070); assay type: functional, Betapolyomavirus macacae;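 further: Confirmatory-stage PubChem screen for compounds that inhibit SV40 T antigen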
Sequence of Large T antigen (P03070 whole entry): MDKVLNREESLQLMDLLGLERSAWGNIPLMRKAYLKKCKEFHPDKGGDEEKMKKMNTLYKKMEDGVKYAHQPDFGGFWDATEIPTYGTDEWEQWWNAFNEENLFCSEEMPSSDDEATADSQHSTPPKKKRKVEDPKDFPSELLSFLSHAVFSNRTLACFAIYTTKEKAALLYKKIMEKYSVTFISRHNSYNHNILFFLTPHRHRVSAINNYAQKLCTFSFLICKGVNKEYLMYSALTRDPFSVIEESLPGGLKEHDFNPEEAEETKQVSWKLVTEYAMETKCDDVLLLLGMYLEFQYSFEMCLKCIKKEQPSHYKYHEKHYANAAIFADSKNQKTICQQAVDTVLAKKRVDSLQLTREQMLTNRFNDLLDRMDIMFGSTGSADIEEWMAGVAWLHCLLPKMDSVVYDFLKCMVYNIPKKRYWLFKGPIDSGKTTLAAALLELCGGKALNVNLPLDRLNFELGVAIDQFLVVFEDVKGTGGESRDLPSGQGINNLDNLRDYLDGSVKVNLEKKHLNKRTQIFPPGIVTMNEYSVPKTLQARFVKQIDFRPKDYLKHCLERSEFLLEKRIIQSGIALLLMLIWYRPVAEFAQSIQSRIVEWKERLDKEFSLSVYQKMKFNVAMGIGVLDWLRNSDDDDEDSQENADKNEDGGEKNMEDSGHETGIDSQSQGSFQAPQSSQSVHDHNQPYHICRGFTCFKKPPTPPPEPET

[5] = biological target: T1, Protein skinhead-1 (Caenorhabditis elegans, UniProt P34707); assay type: functional
T1 sequence (P34707 whole entry): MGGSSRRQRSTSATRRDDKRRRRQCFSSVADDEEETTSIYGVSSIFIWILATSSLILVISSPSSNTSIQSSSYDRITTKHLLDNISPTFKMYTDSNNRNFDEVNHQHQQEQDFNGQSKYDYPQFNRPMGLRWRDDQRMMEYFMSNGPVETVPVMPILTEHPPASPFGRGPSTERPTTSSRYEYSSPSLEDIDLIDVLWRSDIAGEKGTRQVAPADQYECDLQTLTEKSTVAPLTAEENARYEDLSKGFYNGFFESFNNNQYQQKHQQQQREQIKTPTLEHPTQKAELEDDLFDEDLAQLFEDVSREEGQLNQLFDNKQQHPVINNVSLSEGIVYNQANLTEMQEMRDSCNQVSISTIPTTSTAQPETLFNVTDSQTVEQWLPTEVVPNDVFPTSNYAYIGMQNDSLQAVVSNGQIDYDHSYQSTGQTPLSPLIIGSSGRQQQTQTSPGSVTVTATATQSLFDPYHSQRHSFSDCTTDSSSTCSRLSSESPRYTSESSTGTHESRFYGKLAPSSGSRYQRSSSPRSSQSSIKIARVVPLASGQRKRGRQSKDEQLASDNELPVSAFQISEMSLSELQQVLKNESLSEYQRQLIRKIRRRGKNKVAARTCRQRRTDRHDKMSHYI

[6] = HEp-2 cell cytotoxicity, dose response, cytotoxicity control for RSV inhibitor project, HTS (AID 2410); assay type: functional; details: human respiratory syncytial virus
[7] = inhibitors of intracellular T. cruzi replication, confirmation, NIH3T3 host cells, beta-gal luminescence (AID 2044); assay type: functional, cell-based;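 further: intracellular parasites grown in NIH/3T3 mouse fibroblasts as host cells; luminescent beta-galactosidase reporter signal from transgenic T. cruzi replicating inside host cells; inhibitors lower the luminescence signal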
[8] = cytotoxicity toward NIH3T3 fibroblasts, dose response, counter-screen, cell-based, ATP luminescence, mouse fibroblasts (AID 2010); assay type: functional;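 further: cells exposed to compound for about 90 hours before reading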
[9] = test system: INS1; experiment: beta cell apoptosis inhibitors, cytokine rescue, dose response, luminescence, retest (AID 449756); assay type: functional, cell-based; details: Rattus norvegicus;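 further: cell death triggered by IL-1 beta plus TNF-alpha plus IFN-gamma mixture; protective hits raise ATP signal compared with cytokine alone wells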
[10] = biological target: T2, Replicative DNA helicase DnaB (Mycobacterium tuberculosis, UniProt P9WMR3); experiment: DnaB intein splicing inhibitors, dose response, biochemical, cell-free fluorescence (AID 449749); assay type: functional
T2 sequence (P9WMR3 whole entry): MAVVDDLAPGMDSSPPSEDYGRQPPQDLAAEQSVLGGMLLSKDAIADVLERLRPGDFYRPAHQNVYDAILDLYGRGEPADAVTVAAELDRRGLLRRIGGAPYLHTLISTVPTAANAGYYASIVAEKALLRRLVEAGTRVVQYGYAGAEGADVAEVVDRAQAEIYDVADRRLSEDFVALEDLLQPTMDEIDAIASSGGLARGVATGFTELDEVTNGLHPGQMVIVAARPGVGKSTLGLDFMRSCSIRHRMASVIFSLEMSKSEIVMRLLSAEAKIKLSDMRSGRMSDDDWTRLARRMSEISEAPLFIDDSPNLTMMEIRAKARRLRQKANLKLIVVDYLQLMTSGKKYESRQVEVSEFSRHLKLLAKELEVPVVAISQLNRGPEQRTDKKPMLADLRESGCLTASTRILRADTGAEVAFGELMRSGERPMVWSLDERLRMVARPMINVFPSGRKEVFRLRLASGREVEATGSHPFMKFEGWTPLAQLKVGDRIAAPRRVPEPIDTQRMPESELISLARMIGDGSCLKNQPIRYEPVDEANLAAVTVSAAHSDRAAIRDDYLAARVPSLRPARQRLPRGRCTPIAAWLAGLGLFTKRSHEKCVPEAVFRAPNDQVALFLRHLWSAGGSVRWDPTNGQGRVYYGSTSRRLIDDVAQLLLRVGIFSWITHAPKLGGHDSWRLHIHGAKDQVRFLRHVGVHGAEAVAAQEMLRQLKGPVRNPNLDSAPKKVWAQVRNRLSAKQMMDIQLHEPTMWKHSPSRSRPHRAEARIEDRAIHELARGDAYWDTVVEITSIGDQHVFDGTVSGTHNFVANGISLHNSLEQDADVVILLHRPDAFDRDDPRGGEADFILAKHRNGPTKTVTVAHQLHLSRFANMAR

[11] = Luminescence Cell-Based Dose Retest to Confirm Inhibitors of Cancer Stem Cells. [Related pubchem assays (depositor defined):AID2717, AID2721]; assay type: functional; details: Homo sapiens
[12] = biological target: T3, Protein RecA (Mycobacterium tuberculosis, UniProt P9WHJ3); experiment: Fluorescence Cell-Free Homogeneous Dose Retest to Identify Inhibitors of RecA-Intein Splicing Activity. [Related pubchem assays (depositor defined):AID2097, AID2223, AID489010, AID492950]; assay type: functional
T3 sequence (P9WHJ3 whole entry): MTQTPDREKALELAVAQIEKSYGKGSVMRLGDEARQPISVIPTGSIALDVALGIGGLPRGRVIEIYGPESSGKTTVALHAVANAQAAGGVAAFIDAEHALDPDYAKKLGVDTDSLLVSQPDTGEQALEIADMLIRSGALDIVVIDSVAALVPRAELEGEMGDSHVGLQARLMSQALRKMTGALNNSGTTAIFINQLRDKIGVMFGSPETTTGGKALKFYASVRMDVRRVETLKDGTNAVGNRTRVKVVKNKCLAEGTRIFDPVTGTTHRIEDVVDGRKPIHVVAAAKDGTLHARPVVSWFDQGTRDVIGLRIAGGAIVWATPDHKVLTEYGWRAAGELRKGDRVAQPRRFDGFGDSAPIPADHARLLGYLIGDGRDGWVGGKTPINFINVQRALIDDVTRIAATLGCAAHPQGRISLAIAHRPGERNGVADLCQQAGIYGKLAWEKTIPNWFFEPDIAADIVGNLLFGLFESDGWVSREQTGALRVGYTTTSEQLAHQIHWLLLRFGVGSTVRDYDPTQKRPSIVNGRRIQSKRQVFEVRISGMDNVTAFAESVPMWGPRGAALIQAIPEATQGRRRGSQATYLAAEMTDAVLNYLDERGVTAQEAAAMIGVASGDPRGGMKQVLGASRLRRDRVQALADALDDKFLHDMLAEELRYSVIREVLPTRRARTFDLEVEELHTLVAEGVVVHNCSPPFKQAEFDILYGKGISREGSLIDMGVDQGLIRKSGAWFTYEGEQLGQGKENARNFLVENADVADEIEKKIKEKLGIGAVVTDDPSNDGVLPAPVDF

[13] = biological target: T4, Streptokinase A (Streptococcus pyogenes serotype M1, UniProt P10520); experiment: S. pyogenes streptokinase expression inhibitors, potency, dose response, plasminogen activation absorbance, OD405 (AID 1914); assay type: functional, Streptococcus pyogenes M1 GAS;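 further: secreted streptokinase activity via plasminogen activation per viability signal from cell pellet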
T4 sequence (P10520 whole entry): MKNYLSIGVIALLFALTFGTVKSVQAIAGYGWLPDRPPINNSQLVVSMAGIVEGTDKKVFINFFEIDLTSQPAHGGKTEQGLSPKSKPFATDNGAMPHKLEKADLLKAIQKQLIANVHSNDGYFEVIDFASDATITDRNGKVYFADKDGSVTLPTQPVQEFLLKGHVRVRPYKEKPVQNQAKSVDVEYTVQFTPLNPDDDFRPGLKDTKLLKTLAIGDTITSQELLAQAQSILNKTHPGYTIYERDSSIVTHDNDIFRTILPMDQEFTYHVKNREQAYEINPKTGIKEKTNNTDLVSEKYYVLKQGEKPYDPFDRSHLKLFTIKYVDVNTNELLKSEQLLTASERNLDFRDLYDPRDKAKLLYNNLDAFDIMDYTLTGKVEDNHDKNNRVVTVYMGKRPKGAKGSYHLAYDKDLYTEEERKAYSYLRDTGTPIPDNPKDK

[14] = test system: Streptococcus sp. 'group A'; experiment: growth inhibition of control SK(-) GAS strain, dose response, counter-screen for streptokinase expression inhibitor project, luminescence, kanamycin, BacTiterGlo, confirmation (AID 1900); assay type: functional, organism-based
[15] = test system: Streptococcus; experiment: Group A Streptococcus viability loss, dose response, counter-screen for streptokinase expression inhibitor project, luminescence, BacTiterGlo (AID 1915); assay type: functional, organism-based;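 further: potency for reduction of bacterial viability or growth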

SMILES: CCCn1c2ccccc2c2nnc(SCC(=O)Nc3c(C)n(C)n(-c4ccccc4)c3=O)nc21
- EC50 [1]: > 120 µM (not active)
- EC50 [2]: > 120 µM (not active)
- EC50 [3]: > 120 µM (not active)

SMILES: O=C1ON=C(c2ccccc2)/C1=C\c1ccco1
- IC50 [4]: 28.2 µM (active)

SMILES: CCN(CC)C(=O)c1sc(NC(=O)Cc2ccc(OC)cc2)c(C#N)c1C
- IC50 [5]: > 100 µM (inactive)

SMILES: Oc1nc(N/N=C/c2ccccc2Br)nnc1-c1ccccc1
- CC50 [6]: 30.9 µM (active)

SMILES: c1ccc(-c2ccc(-n3ccnc3)cc2)cc1
- EC50 [7]: > 30 µM (not active)
- IC50 [5]: 6.11 µM (active)
- EC50 [8]: > 30 µM (not active)

SMILES: O=C(NNC(=O)c1ccccc1OCc1ccccc1)c1ccccc1O
- EC50 [1]: 11.6 µM (active)
- EC50 [2]: 5.27 µM (active)
- AC50 [9]: 2.76 µM (active)
- EC50 [3]: 3.92 µM (active)

SMILES: O=C(NC1CCCC1)C1C(c2ccc(C(F)(F)F)cc2)=Nc2ccccc2N1C(=O)c1ccco1 (stereo not given)
- IC50 [5]: > 100 µM (inactive)

SMILES: Fc1ccc(-c2nnc(Cc3ccc(Cl)cc3)o2)cc1
- IC50 [5]: 20.2 µM (active)

SMILES: COc1cc(/C=N/NC(=O)c2ccoc2C)cc(OC)c1O
- IC50 [4]: 33.9 µM (active)

SMILES: CCC(C)(C)C(=O)Nc1ncc(S(=O)(=O)c2ccc([N+](=O)[O-])cc2)s1
- IC50 [5]: > 100 µM (inactive)

SMILES: COc1ccc(CC(=O)NCc2ccc3c(c2)cc(C)n3C)cc1
- IC50 [5]: > 100 µM (inactive)

SMILES: COc1ccc2c(c1)C(=O)Cc1ccccc1O2
- IC50 [4]: 86.7 µM (active)

SMILES: CC(C)(C)c1ccc(/C=C(\c2nc3ccccc3[nH]2)S(=O)(=O)c2ccccc2)cc1
- AC50 [10]: 2.19 µM (active)
- EC50 [7]: 0.995 µM (active)
- AC50 [9]: 6.71 µM (active)
- AC50 [11]: 1.36 µM (active)
- EC50 [12]: 2.77 µM (active)
- EC50 [8]: > 60 µM (not active)

SMILES: CCc1ccccc1N=C(S)N=C(N)Nc1nc(C)c2cc(C)ccc2n1
- EC50 [1]: > 120 µM (not active)
- EC50 [2]: 29.4 µM (active)
- EC50 [3]: > 120 µM (not active)

SMILES: CC(=O)n1cc(-c2ccncc2)c2ccccc21
- CC50 [6]: 31.5 µM (active)

SMILES: O=Nc1c(O)n(Cc2ccc(Cl)cc2Cl)c2ccccc12
- AC50 [11]: 6.86 µM (active)

SMILES: Cc1nn(-c2ccccc2)c(C)c1/C=N/n1c(S)nnc1-c1ccc(C(C)(C)C)cc1
- EC50 [13]: > 150 µM (not active)
- EC50 [14]: 3.13 µM (active)
- AC50 [11]: 5.78 µM (active)
- EC50 [15]: 5.35 µM (active)

SMILES: O=C(Nc1ccc(C(O)(C(F)(F)F)C(F)(F)F)cc1)c1ccc(Cl)c([N+](=O)[O-])c1
- AC50 [11]: 5.95 µM (active)

SMILES: CC(=O)Oc1cc2oc(=O)cc(C)c2cc1OC(C)=O
- IC50 [4]: 21.4 µM (active)

SMILES: O=C(Nc1ccc(Cl)c(Cl)c1)c1ccc2c(c1)OCO2
- CC50 [6]: > 50 µM (active)

SMILES: O=C(C[C@H]1C[C@H](C(=O)N2CCOCC2)[C@@]2(CCC3CCCC3)c3[nH]c4cc(-c5ccco5)ccc4c3CCN2C1=O)NCc1ccco1
- IC50 [5]: > 100 µM (inactive)

SMILES: COc1ccccc1-c1cc(C(=O)N/N=C/c2ccc(C)s2)c2ccccc2n1
- CC50 [6]: 32.2 µM (active)

SMILES: Oc1ccc(/C=N/Nc2ccc(Cl)nn2)cc1O
- IC50 [4]: 8.16 µM (active)

SMILES: CN1CCN(/N=C/c2c[nH]c3ccccc23)CC1
- IC50 [4]: 15.4 µM (active)

SMILES: COc1cccc(/C=C/c2nc(C#N)c(NCC(C)C)o2)c1
- AC50 [11]: 2.19 µM (active)

SMILES: COc1ccc(O)c(/C=N/Nc2nc(C)cc(-c3ccccc3)n2)c1
- CC50 [6]: 18.1 µM (active)

SMILES: CC(C)(C)c1ccc(NC(=O)c2c(F)cccc2Cl)cc1
- CC50 [6]: 43.5 µM (active)

SMILES: CCOC(=O)c1c(C)n(C)c2ccc(OCC(O)Cn3nc(C)c(Br)c3C)cc12 (stereo not given)
- EC50 [13]: > 150 µM (not active)
- EC50 [14]: 15.6 µM (active)
- CC50 [6]: 15.6 µM (active)
- EC50 [15]: 38.1 µM (active)

SMILES: O=C1Nc2ccccc2/C1=C\c1cccn1-c1ccc(OC(F)(F)F)cc1
- EC50 [1]: > 120 µM (not active)
- EC50 [2]: 15.4 µM (active)
- EC50 [3]: 15.7 µM (active)

SMILES: Clc1ccc(-c2nnc(SCc3ccon3)o2)c(Cl)c1
- IC50 [5]: 60.2 µM (inactive)

SMILES: Clc1ccc(-c2nc(CSc3ccccn3)cs2)cc1
- IC50 [5]: 59.1 µM (inactive)

SMILES: O=C1/C(=N/n2cnnc2)c2ccccc2N1Cc1ccccc1
- IC50 [4]: 24.8 µM (active)

SMILES: C=CCn1c(-c2ccccc2)ccc(C#N)c1=O
- IC50 [5]: 15.8 µM (active)

SMILES: NC(=O)CC(NC(=O)Cc1cccc2ccccc12)c1ccc(NC2CC3CCC2C3)c([N+](=O)[O-])c1 (stereo not given)
- CC50 [6]: > 50 µM (active)

SMILES: Clc1cc(Cl)c2nc(N3CCCC3)sc2c1
- IC50 [5]: 27.1 µM (active)

SMILES: CCc1ccc2c(c1)c1nnc(NN)nc1n2C
- EC50 [1]: > 120 µM (not active)
- EC50 [2]: > 120 µM (not active)
- EC50 [3]: > 120 µM (not active)
